Laboratory results taken from US3956492A, “Pharmaceutical compositions containing a 3-(amino-methylene)-5-phenyl-1,4-benzodiazepin-2-one and method of use” (Boehringer Ingelheim GmbH, priority 1972, dated 1976).
Like-named read-outs stand apart in the source and are kept apart here.

Tests used:
Format in all cases: in vivo
female NMRI-mice = assay: Muscle-relaxing and sedative activity by the method of Young and Lewis (holding ability in slowly rotating inclined wire-mesh cylinders); conditions: Mus musculus, po, 50% of animals fall out of cylinders
Experimental: The muscle-relaxing and sedative activities were tested by the method of Young and Lewis [Science 105, 368 (1947)]on female NMRI-mice of our own breed with a body weight between 20 and 26 gm by means of slowly turning wire-mesh cylinders, inclined at 30° from the vertical (length : 43 cm; diameter : 22 cm; mesh-size of the wire netting : 0.6 cm). After peroral administration of the test compound in the form of a 1% suspension in tylose to groups of 10 mice/dose their holding ability in the slowly rotating cylinders was tested (2 rotations/minute) against a control group. The median effective dose (ED50) was graphically determined which caused 50% of the animals to fall out of the cylinders at various time intervals after administration.

male NMRI-mice = assay: Anticonvulsive activity, protective effect against the maximum electro-shock-spasm; conditions: Mus musculus, po, p.o., 50% protected against tonic extensor component
Experimental: The anticonvulsive activity was tested in terms of the protective effect against the maximum electro-shock-spasm in male NMRI-mice of our own breed with a body weight between 20 and 26 gm analogous to Swinyard, Brown and Goodman [J. Pharmacol. exp. Therap. 106, 319 (1952)]. The animals were exposed to an alternating current of 50 cycles and 50 milliamperes (duration of stimulation 0.2 seconds), where the occurrence of the tonic extensor spasm was valued as positive. After peroral administration of the test compound in the form of a 1% suspension in tylose, the dose (ED50) was graphically determined which protected 50% of the animals against the tonic extensor component of the back extremities after various time intervals.

adult laboratory mice = assay: Standard acute toxicity tests; conditions: group of 10 adult laboratory mice
Experimental: It should be added that the compounds of the formula I are virtually non-toxic. For instance, by standard acute toxicity tests were determined that even massive doses of 6400 mgm/kg p.o. of compound A or 3200 mgm/kg p.o. of compounds B or C produced no deaths in a group of 10 adult laboratory mice within 14 days.

mice = assay: Effect on spontaneous motility (sedative activity); conditions: Mus musculus, po, motility decreased by 50% vs control animals
Source text: The sedative activity was further determined on mice in terms of the decreasing effect upon the spontaneous motility. The motility of 8 mice per dose of test compound was compared to the motility of 8 control animals; each group was placed into separate motility-measuring cages (diameter : 25 cm), with 10 photoelectric cells in the floor and a light source above the cage. After peroral administration of the test compound the dose was graphically determined which decreased the motility by 50%, compared to the control animals, at various time intervals after administration.

[1] = after 30-60 min., read-out: ED50 after 30-60 min.
[2] = after 90-120 min., read-out: ED50 after 90-120 min.
[3] = after 210-240 min., read-out: ED50 after 210-240 min.
[4] = after 270-300 min., read-out: ED50 after 270-300 min.
[5] = 0.5 h, after 30 min., read-out: ED50 after 30 min.
[6] = 2.5 h, after 150 min., read-out: ED50 after 150 min.
[7] = 5 h, after 300 min., read-out: ED50 after 300 min.
[8] = after 90-95 min., read-out: ED50 after 90-95 min.
[9] = after 150-155 min., read-out: ED50 after 150-155 min.

SMILES | ED50 (female NMRI-mice; [1]) [mg/kg] | ED50 (female NMRI-mice; [2]) [mg/kg] | ED50 (female NMRI-mice; [3]) [mg/kg] | ED50 (female NMRI-mice; [4]) [mg/kg] | ED50 (male NMRI-mice; [5]) [mg/kg] | ED50 (male NMRI-mice; [6]) [mg/kg] | ED50 (male NMRI-mice; [7]) [mg/kg] | deaths within 14 days (adult laboratory mice; 6400 mgm/kg p.o.) | deaths within 14 days (adult laboratory mice; 3200 mgm/kg p.o.) | ED50 (mice; [8]) [mg/kg] | ED50 (mice; [9]) [mg/kg]
CN1C(=O)C(=CN2CCOCC2)N=C(c2ccccc2Cl)c2cc(Cl)ccc21 [A, 7-chloro-5-(2'-chloro-phenyl)-1,3-dihydro-1-methyl-3-(morpholino-methylene)-2H-1,4-benzodiazepin-2-one] | 14 | 5 | 14 | 3 | 100 | 18 | 13 | no deaths | – | – | –
NC=C1N=C(c2ccccc2Cl)c2cc(Cl)ccc2NC1=O [B, 3-(amino-methylene)-7-chloro-5-(2'-chloro-phenyl)-1,3-dihydro-2H-1,4-benzodiazepin-2-one] | 13 | 3 | 10 | 11 | 85 | 28 | 43 | – | no deaths | – | –
CCNC=C1N=C(c2ccccc2Cl)c2cc(Cl)ccc2N(C)C1=O [C, 3-(ethylamino-methylene)-7-chloro-5-(2'-chloro-phenyl)-1,3-dihydro-1-methyl-2H-1,4-benzodiazepin-2-one] | 2 | 3 | 11 | 3 | 200 | 28 | 36 | – | no deaths | – | –
CN1C(=O)C(=CN)N=C(c2ccccc2Cl)c2cc(Br)ccc21 [Compound E, 3-(amino-methylene)-7-bromo-5-(2'-chloro-phenyl)-1,3-dihydro-1-methyl-2H-1,4-benzodiazepin-2-one] | 7 | 7 | 5 | 6 | 18 | 17 | 26 | – | – | – | –
CN1C(=O)C(=CN2CCOCC2)N=C(c2ccccc2Cl)c2cc(Br)ccc21 [D, 7-bromo-5-(2'-chloro-phenyl)-1,3-dihydro-1-methyl-3-(morpholino-methylene)-2H-1,4-benzodiazepin-2-one] | 33 | 26 | 16 | 13 | 200 | 31 | 34 | – | – | 4.4 | 5.2
NC=C1N=C(c2ccccc2Cl)c2cc(Br)ccc2NC1=O [F, 3-(amino-methylene)-7-bromo-5-(2'-chloro-phenyl)-1,3-dihydro-2H-1,4-benzodiazepin-2-one] | 0.5 | 0.7 | 0.7 | 1.9 | 70 | 14.5 | 16 | – | – | 8.15 | 3.76
CCNC=C1N=C(c2ccccc2Cl)c2cc(Br)ccc2NC1=O [G, 3-(ethylamino-methylene)-7-bromo-5-(2'-chloro-phenyl)-1,3-dihydro-2H-1,4-benzodiazepin-2-one] | 2.4 | 1.25 | 2.1 | 2.4 | 37 | 8.8 | 22 | – | – | 1.56 | 2.45
CN1C(=O)C(=CN)N=C(c2ccccc2Cl)c2cc(I)ccc21 [H, 3-(amino-methylene)-5-(2'-chloro-phenyl)-1,3-dihydro-7-iodo-1-methyl-2H-1,4-benzodiazepin-2-one] | 2.6 | 1.5 | 2.7 | 1.6 | 38 | 30 | 16 | – | – | – | –
